Measured values taken from patent US9718840B2, “Condensed 5-oxazolidinone derivative” (SUMITOMO DAINIPPON PHARMA CO., LTD., priority 2014, dated 2017).

Columns and labels:
Human FXIa = Human FXIa (Homo sapiens, UniProt P03951); assay: In vitro activated factor XI (FXIa) inhibition test; format: biochemical
[1] = test system: Rabbit venous thrombus models; assay: In vivo antithrombotic effect evaluation test using rabbit (arteriovenous shunt); conditions: prompt i.v. + continuous i.v.
Experimental: (§1) Rabbit venous thrombus models were prepared by a modification of the report of Wong et al. (Wong P C. et al., J. Pharmacol. Exp. Ther. 292: 351-357 (2000)). Male rabbits (JW, 2 to 4 kg) were anesthetized by the inhalation of isoflurane (ISOFLU®, manufactured by DS Pharma Animal Health Co., Ltd.) (introduced anesthesia: 4%, continuous anesthesia: 1.5 to 2.5%). A tracheostomy tube was inserted to each rabbit, which was then ventilated using a respirator. For the intravenous administration of a test drug and blood collection, catheters were inserted to the right femoral vein and the right femoral artery, respectively. An arteriovenous shunt filled with saline was inserted to the carotid artery and the jugular vein. The arteriovenous shunt was prepared by connecting Atom extension tubes (4Fr) having lengths of 15 cm and 13 cm to the artery side and the vein side, respectively, of a polyethylene tube (length: 60 cm, outside diameter: 11.1 mm, inside diameter: 7.9 mm). Also, 4-0 silk thread having a length of 5 cm was indwelled in the arteriovenous shunt. Blood was sent for 30 minutes from the carotid artery to the jugular vein via the arteriovenous shunt. The shunt was removed, and the weight of the silk thread covered with thrombus was measured. The weight of the silk thread measured before the experiment was subtracted from the measured weight, and the obtained value was used as a wet thrombus weight. One hour before the open of the arteriovenous shunt, the test drug or a vehicle was promptly intravenously administered (0.67 mL/kg) and then continuously intravenously administered (1 mL/kg/hr). The continuous injection was continued throughout the experiment. Further, an existing anticoagulant dabigatran (antithrombin drug) and rivaroxaban (FXa inhibitor) were tested as control drugs.
In order to measure aPTT of blood samples as an index for the intrinsic coagulation pathway, blood was collected before administration and immediately before cessation of blood flow, and plasma was prepared using 3.2% sodium citrate. After incubation at 37° C. for 6 minutes, an STA reagent Cephascreen (for aPTT assay; manufactured by Roche Diagnostics K.K.) was added in an amount equal thereto, and the mixture was further incubated for 4 minutes. STA calcium chloride (manufactured by Roche Diagnostics K.K.) was added in an amount equal thereto, and the time required for coagulation was measured.
In order to measure prothrombin time (PT) of blood samples as an index for the extrinsic coagulation pathway, blood was collected before administration and immediately before cessation of blood flow, and plasma was prepared using 3.2% sodium citrate. After incubation at 37° C. for 10 minutes, Neoplastin Plus (for PT assay; manufactured by Roche Diagnostics K.K.) was added in a double amount, and the time required for coagulation was measured.

[2] = test system: Rabbit nail bleeding models; assay: Bleeding time evaluation test using rabbit nail bleeding model; format: in vivo; conditions: for Bleeding time: Experiment 1 (maximum 30 minutes), rabbit; for Bleeding time (fold-increase): Experiment 1, ratio to vehicle group average
Experimental: Rabbit nail bleeding models were prepared by a modification of the report of Wong et al. (Wong P C. et al., J. Thromb. Haemost. 7: 1313-1320 (2009)). Male rabbits (JW, 1.5 to 3.5 kg) were anesthetized by the inhalation of isoflurane (ISOFLU®, manufactured by DS Pharma Animal Health Co., Ltd.) (introduced anesthesia: 4%, continuous anesthesia: 2 to 3%).
(§2) For the intravenous administration of a test drug or a vehicle, an indwelling needle was inserted to the auricular vein, and the test drug or the vehicle was promptly intravenously administered (0.67 mL/kg) and then continuously intravenously administered (1 mL/kg/hr). One hour after the start of administration, three posterior toenails were cut and dipped in saline heated to approximately 37° C., and the bleeding time was measured. The bleeding time was defined as a time from the cutting to the arrest of bleeding, and an average value from the three nails was used. The measurement time was 30 minutes at the maximum for experiment 1 and 60 minutes at the maximum for experiment 2. In each experiment, if bleeding for 30 minutes or 60 minutes or longer was confirmed, the bleeding time was regarded as 30 minutes or 60 minutes.

[3] = test system: Rabbit venous thrombus models; assay: Effect of combined use with antiplatelet drug using rabbit AVST model; format: in vivo; conditions: alone
Experimental: as §1, with “Male rabbits (JW, 2 to 4 kg) were anesthetized by the inhalation of isoflurane (ISOFLU®, manufactured by DS Pharma Animal Health Co., Ltd.) (introduced anesthesia: 4%, continuous anesthesia: 1.5 to 2.5%).” left out, “The arteriovenous shunt was prepared by connecting Atom extension tubes (4Fr) having lengths of 15 cm and 13 cm to the artery side and the vein side, respectively, of a polyethylene tube (length: 60 cm, outside diameter: 11.1 mm, inside diameter: 7.9 mm).” left out, “[…] STA calcium chloride (manufactured by Roche Diagnostics K.K.) was added in” for “Further,”, “amount equal thereto,” for “existing anticoagulant dabigatran (antithrombin drug)”, “the time required for coagulation was measured.” for “rivaroxaban (FXa inhibitor) were tested as control drugs.”

[4] = test system: Rabbit nail bleeding models; assay: Effect of combined use with antiplatelet drug using rabbit nail bleeding model; format: in vivo; conditions: alone; for Bleeding time: rabbit, maximum 60 minutes; for Bleeding time (fold-increase): ratio to vehicle group average
Experimental: as §2, with “Rabbit nail bleeding models were prepared by a modification of the report of Wong et al. (Wong P C. et al., J. Thromb. Haemost. 7: 1313-1320 (2009)). Male rabbits (JW, 1.5 to 3.5 kg) were anesthetized by the inhalation of isoflurane (ISOFLU®, manufactured by DS Pharma Animal Health Co., Ltd.) (introduced anesthesia: 4%, continuous anesthesia: 2 to 3%). For” for “For”, “was” for “was 30 minutes at the maximum for experiment 1 and”, “maximum. If” for “maximum for experiment 2. In each experiment, if”, “for” for “for 30 minutes or”, “as” for “as 30 minutes or”

[5] = dose 0.03 + 0.045 mg/kg + mg/kg/h
[6] = dose 0.1 + 0.15 mg/kg + mg/kg/h
[7] = dose 0.3 + 0.45 mg/kg + mg/kg/h
[8] = dose 0.03 + 0.045 mg/kg + mg/kg/h i.v.
[9] = dose 0.1 + 0.15 mg/kg + mg/kg/h i.v.
[10] = dose 0.3 + 0.45 mg/kg + mg/kg/h i.v.

Human FXIa, sequence (P03951 388-625 limits assumed): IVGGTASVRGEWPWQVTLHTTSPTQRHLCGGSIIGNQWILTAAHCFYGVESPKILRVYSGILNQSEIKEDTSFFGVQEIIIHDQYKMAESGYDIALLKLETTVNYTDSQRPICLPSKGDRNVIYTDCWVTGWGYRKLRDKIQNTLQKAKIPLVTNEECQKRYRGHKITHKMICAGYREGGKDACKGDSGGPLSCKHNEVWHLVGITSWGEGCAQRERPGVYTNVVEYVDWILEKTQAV
Human FXIa, sequence (P03951 19-387 partner limits assumed): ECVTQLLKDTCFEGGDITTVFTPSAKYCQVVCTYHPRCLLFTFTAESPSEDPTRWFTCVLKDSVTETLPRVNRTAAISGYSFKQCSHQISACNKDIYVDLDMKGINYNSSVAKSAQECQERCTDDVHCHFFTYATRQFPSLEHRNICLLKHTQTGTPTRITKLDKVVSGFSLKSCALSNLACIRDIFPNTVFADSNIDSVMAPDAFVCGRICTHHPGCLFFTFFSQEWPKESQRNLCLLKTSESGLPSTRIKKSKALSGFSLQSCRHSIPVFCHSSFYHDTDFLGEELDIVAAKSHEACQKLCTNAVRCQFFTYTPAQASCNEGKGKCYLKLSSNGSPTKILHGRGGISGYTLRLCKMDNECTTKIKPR

**Q.** `N[C@H](CF)[C@H]1CC[C@H](C(=O)N2CC[C@@H](C3CCCCC3)[C@H]2C(=O)Nc2ccc3[nH]c(C(=O)O)nc3c2)CC1` was tested. Which IC50 (Human FXIa) did it give?
**A.** 34 nM

**Q.** `N[C@H](CF)[C@H]1CC[C@H](C(=O)N2CC[C@@H](c3ccccc3)[C@H]2C(=O)Nc2ccc3[nH]c(C(=O)O)cc3c2)CC1` was tested. Which IC50 (Human FXIa) did it give?
**A.** 15 nM

**Q.** How did the IC50 (Human FXIa) turn out when `N[C@H](CF)[C@H]1CC[C@H](C(=O)N2CC[C@H](c3ccccc3)[C@H]2C(=O)Nc2ccc3[nH]c(C(=O)O)cc3c2)CC1` was run?
**A.** 20 nM

**Q.** Which “PT (ratio)” value [1, 5] does the source give for `O=C(NC[C@H]1CN(c2ccc(N3CCOCC3=O)cc2)C(=O)O1)c1ccc(Cl)s1` [Rivaroxaban] here?
**A.** 1.23 ± 0.05 ratio

**Q.** And the Thrombus weight [1, 5]?
**A.** 92 ± 19 mg

**Q.** And the “aPTT (ratio)” value [1, 5]?
**A.** 1.22 ± 0.06 ratio

**Q.** And the “PT (ratio)” value [1, 6]?
**A.** 1.73 ± 0.15 ratio

**Q.** And the Thrombus weight [1, 6]?
**A.** 58 ± 9 mg

**Q.** What about the “aPTT (ratio)” value [1, 6] of the same molecule?
**A.** 1.50 ± 0.09 ratio

**Q.** And the “PT (ratio)” value [1, 7]?
**A.** 2.87 ± 0.33 ratio

**Q.** What about the Thrombus weight [1, 7] of the same molecule?
**A.** 29 ± 10 mg

**Q.** What about the “aPTT (ratio)” value [1, 7] of the same molecule?
**A.** 1.87 ± 0.14 ratio

**Q.** What about the “Bleeding time” value [2, 8] of the same molecule?
**A.** 1031 ± 319 s

**Q.** What about the “Bleeding time” value [2, 9] of the same molecule?
**A.** 1369 ± 334 s

**Q.** And the “Bleeding time” value [2, 10]?
**A.** 1733 ± 110 s

**Q.** What about the “Bleeding time (fold-increase)” value [2, 8] of the same molecule?
**A.** 2.3 ± 0.7 fold-increase

**Q.** And the “Bleeding time (fold-increase)” value [2, 9]?
**A.** 3.0 ± 0.7 fold-increase

**Q.** And the “Bleeding time (fold-increase)” value [2, 10]?
**A.** 3.8 ± 0.2 fold-increase

**Q.** And the “PT (ratio)” value [3, 8]?
**A.** 1.23 ± 0.05 ratio

**Q.** And the Thrombus weight [3, 8]?
**A.** 92 ± 19 mg

**Q.** And the “aPTT (ratio)” value [3, 8]?
**A.** 1.22 ± 0.06 ratio

**Q.** And the “PT (ratio)” value [3, 9]?
**A.** 1.73 ± 0.15 ratio

**Q.** And the Thrombus weight [3, 9]?
**A.** 58 ± 9 mg

**Q.** What about the “aPTT (ratio)” value [3, 9] of the same molecule?
**A.** 1.50 ± 0.09 ratio

**Q.** And the “Bleeding time” value [4, 8]?
**A.** 1614 ± 869 s

**Q.** And the “Bleeding time” value [4, 9]?
**A.** 2445 ± 964 s

**Q.** And the “Bleeding time (fold-increase)” value [4, 8]?
**A.** 2.8 ± 1.5 fold-increase

**Q.** What about the “Bleeding time (fold-increase)” value [4, 9] of the same molecule?
**A.** 4.2 ± 1.7 fold-increase
